{"source": "patent US20060167086A1", "about": "“Medicinal composition” (priority 2003, published 2006)", "key": {"[1]": {"tested_on": "hypertrophic fat cells (from precursor fat cell line 3T3-L1)", "assay": "Apoptosis induction (TUNEL) in hypertrophic fat cells", "assay_type": "cell-based", "method": "It is considered that diseases involving insulin resistance result from TNF-α secreted from hypertrophic fat cells, as mentioned above. Thus, to examine whether (−)-DHM2EQ can induce apoptosis of hypertrophic fat cells, the influence of (−)-DHM2EQ on the hypertrophic fat cells obtained by inducing differentiation of precursor fat cells in long-term culture was investigated. The precursor fat cell line 3T3-L1 (7.5×10^4 cells; 1 ml of DMEM+10% FBS) was plated on coverslips in 12-well plates. A few days after the cells reached confluency, the cell medium was changed to a medium containing 500 μM of 3-isobutyl-1-methylxanthine (IBMX), 1 μM of dexamethasone (Dex), and a medium containing 1 μg/ml of insulin. After culture for 3 days, this medium was changed to a media containing 1 μg/ml insulin, which was cultured for another 3 days, followed by replacement with a normal medium (DMEM containing 10% FBS). Thereafter, medium change was performed every three days continuously till day 50.\nOn day 50 after differentiation induction, medium change was performed. […] After another 24 h, the medium was removed and hypertrophy fat cells were washed 3 times with 500 μl of PBS (8 g/l NaCl, 0.45 g/l NaH2PO4.2H2O, 1.28 g/l Na2HPO4) for fluorescent antibodies and fixed for 15 min at 4° C. in 500 μl of 4% paraformaldehyde. Subsequently, cells were washed three times with 500 μl of PBS for fluorescent antibodies and treated for 15 min with 0.2% BSA and 0.5% Tween-20 in PBS for fluorescent antibodies.\nSubsequently, the coverslips were washed three times with 500 μl of distilled water and then mounted on the paraffin sheet in 150-mm^2 shielded Petri dishes, cells facing upward. TUNEL solution (TdT buffer II/FITC-dUTP/TdT=45 μl/2.5 μl/2.5 μl) was dropped in 45-μl drops onto the coverslips, followed by incubation for 1 h at 37° C. Finally, the coverslips were returned to shielded 12-well plates and washed three times with 1 ml of PBS for fluorescent antibodies. Then the coverslips were removed, mounted on a slide in 50% glycerol, and observed under a fluorescence microscope."}, "C2C12 myoblast cell line": {"tested_on": "C2C12 myoblast cell line", "assay": "Relief of TNF-α inhibition of differentiation from myoblasts to muscle cells", "assay_type": "cell-based, mouse", "conditions": "6 days", "method": "Thus, the inventors investigated whether addition of (−)-DHM2EQ can relieve the inhibitory responses to muscle differentiation by TNF-α, using a differentiation induction system of the C2C12 myoblast cell line. Using DMEM (culture medium) containing 10% FBS a mouse skeletal myogenic cell line, C2C12 (purchased from the RIKEN cell bank) was prepared at 7.5×10^4 cells/ml. Cells were seeded in plastic 12-well plates on coverslips (1 ml/well; Matsunami Glass Ind., Ltd., Osaka, Japan). Subsequently, when cells had grown to confluence, the medium was changed to DMEM (differentiation medium) containing 0.5% heat-inactivated horse serum. Cells to be subjected to the effect of TNF-α (1 ng/ml) and/or (−)-DHMEQ (3 μg/(ml)) were supplemented with each agent at this point. After 6 days, on confirmation of the formation of multinucleated myotubes, a marker of muscle cell differentiation, the medium was removed. The control was prepared by culturing cells in a culture medium at a density such that confluency was reached exactly on day 6.\nThese cells were washed twice with PBS^− (Ca^2+, Mg^2+-free PBS; 8.0 g/l NaCl, 0.2 g/l KCl, 2.3 g/l NaHPO4.12H2O, 0.2 g/l KH2PO4). […]\nSamples thus prepared were mounted on a slide and photographed at 400× magnification with a fluorescence microscope (Nikon UFX-DX; set with a 40× phase contrast objective, Ph2). […]"}, "NF-κB [2]": {"tested_on": "NF-κB", "assay": "Inhibition of NF-κB activity", "assay_type": "cell-based"}, "[3]": {"assay": "Body weight under high fat diet in obese type 2 diabetes model", "assay_type": "in vivo", "conditions": "supplemented to high fat diet, 4 weeks, KKA^y female mice; FIG. 8", "method": "Four-week-old KKA^y female mice were divided into two groups: the (−)-DHM2EQ group (n=5) and the control group (n 4). A high fat diet (CRF-1; Oriental Yeast Co.) as a basal chow diet was fed ad libitum for 4 weeks to the non-supplemented group (∘: without (−)-DHM2EQ) and the (−)-DHM2EQ-administered group (●: with (−)-DHM2EQ). Body weights of animals were measured weekly. The (−)-DHM2EQ given to mice was ground to fine powder in a mortar, suspended or dissolved in a 5% CMC solution, and supplemented to the high fat diet."}, "[4]": {"tested_on": "Undifferentiated human thyroid cancer cell FRO", "assay": "Antitumor effect in thyroid cancer model mice", "assay_type": "in vivo, BALB/cnu/nu male mice", "conditions": "10 mg/kg BW intraperitoneally every day for 10 days; FIG. 6", "method": "The antitumor effect of (−)-DHM2EQ on human thyroid cancer was investigated. Undifferentiated human thyroid cancer cell suspension FRO (5×10^6 cells; 1200 μl of RPMI-1640) was injected subcutaneously into the flank of 8-week-old BALB/cnu/nu male mice (Charles River, Japan). Subsequently, tumor sizes were measured with calipers every other day, and tumor volume was calculated by formula (a; minor axis of tumor)^2×(b: perpendicular diameter to a)×0.4)."}, "[5]": {"tested_on": "multiple myeloma cells line KMS-12-PE", "assay": "Antitumor effect in myeloma model mice", "assay_type": "in vivo, CB17/lcr-SCID mice", "conditions": "8 mg/kg BW intraperitoneally every day for 14 days; FIG. 5", "method": "Next, the antitumor effect of (−)-DHM2EQ on multiple myeloma was investigated. The multiple myeloma cells line KMS-12-PE (Ohtsuki T. et al., Br. J. Hematol. 73, 199-204, 1989) (4×10^7 cells) was dissolved in 0.2 ml of PBS and injected subcutaneously into the left back of CB17/lcr-SCID mice to form tumors. Pieces of these tumors (5 mm^3) were implanted in 10 mice. […] Subsequently, a solution of (−)-DHM2EQ (RPMI1640 medium) was administered intraperitoneally to 5 mice at 8 mg/kg BW every day for 14 days ((−)-DHM2EQ). Another five mice in the control group were given an equal amount of solvent (Control). The diameters of tumors were measured twice a week (Tumor volume=(minor axis)^2×(major axis)×0.52)."}, "breast cancer": {"tested_on": "breast cancer", "conditions": "Annual Meeting of the Japanese Cancer Association, 2002; cited from earlier work"}, "[6]": {"tested_on": "Hodgkin's-lymphoma cells in which NF-κB is activated", "assay": "Proliferation of Hodgkin's-lymphoma cells", "assay_type": "cell-based"}, "[7]": {"tested_on": "adult T cell leukemia/lymphoma (ATL) cells", "assay": "Proliferation of ATL cells", "assay_type": "cell-based"}, "normal cells [8]": {"tested_on": "normal cells", "assay": "Apoptosis of normal cells", "assay_type": "cell-based"}, "[9]": {"tested_on": "myelocytic leukemia cells in which NF-κB is not activated", "assay": "Proliferation of myelocytic leukemia cells", "assay_type": "cell-based"}, "normal cells [10]": {"tested_on": "normal cells", "assay": "Proliferation of normal cells", "assay_type": "cell-based"}, "[11]": {"assay": "Type II collagen-induced rheumatoid arthritis model mice", "assay_type": "in vivo", "conditions": "administration to model mice of type II collagen-induced rheumatoid arthritis"}, "[12]": {"assay": "Combination with oncotherapy that activates NF-κB", "conditions": "used in combination"}, "[13]": {"tested_on": "adult T cell leukemia/lymphoma (ATL) cells", "assay": "Apoptosis of ATL cells", "assay_type": "cell-based"}, "[14]": {"tested_on": "human breast cancer cells", "assay": "Proliferation of human breast cancer cells in vitro and in vivo", "assay_type": "cell-based", "conditions": "in a manner not depending on apoptosis"}, "[15]": {"conditions": "background statement; cited from earlier work"}, "NF-κB [16]": {"tested_on": "NF-κB", "conditions": "J. Biol. Chem. 277, 24625-24630, 2002; cited from earlier work"}, "human normal leukocytes": {"tested_on": "human normal leukocytes", "assay": "Apoptosis of human normal leukocytes", "assay_type": "cell-based", "conditions": "same concentration as that used in inducing apoptosis of leukemia cells"}, "NF-κB [17]": {"tested_on": "NF-κB", "assay": "NF-κB activation in ATL cells", "assay_type": "cell-based"}, "prostatic cancer": {"tested_on": "prostatic cancer", "conditions": "Cancer Res. 2003; 63(1):107-10; cited from earlier work"}, "[18]": {"assay": "Model mice with induced cachexic symptoms", "assay_type": "in vivo", "conditions": "administered to model mice with induced cachexic symptoms"}, "[19]": {"tested_on": "leukemia cells in which NF-κB is activated", "assay": "Apoptosis of leukemia cells", "assay_type": "cell-based"}, "[20]": {"conditions": "Bioorg. Med. Chem. Lett. 10, 865-869, 2000; cited from earlier work"}}, "data": [{"molecule": "TNF-α [reference compound]", "values": [{"measurement": "apoptosis of hypertrophic fat cells", "setting": "[1]; 10 ng/ml TNF-α alone", "value": "did not induce apoptosis"}, {"measurement": "differentiation induction from myoblasts to muscle cells", "setting": "C2C12 myoblast cell line; 1 ng/ml TNF-α", "value": "suppressed differentiation induction"}]}, {"molecule": "O=C(NC1=CC(=O)[C@H]2O[C@H]2[C@H]1O)c1ccccc1O", "note": "[(−)-DHM2EQ]", "values": [{"measurement": "apoptosis of hypertrophic fat cells", "setting": "[1]; 10 μg/ml (−)-DHM2EQ alone, without TNF-α", "value": "did not induce apoptosis"}, {"measurement": "apoptosis of hypertrophic fat cells", "setting": "[1]; pretreated with 10 mg/ml (−)-DHM2EQ, then stimulation with 10 ng/ml TNF-α, TUNEL, FIG. 7", "value": "induces apoptosis"}, {"measurement": "inhibitory effect on the NF-kappa B activity relative to (±)-DHM2EQ", "setting": "NF-κB [2]", "value": "several to ten or more times stronger"}, {"measurement": "body weight under high fat diet load", "setting": "[3]", "value": "suppression of body weight"}, {"measurement": "inhibition by TNF-α of differentiation induction from myoblasts to muscle cells", "setting": "C2C12 myoblast cell line; 1 to 3 μg/ml (−)-DHM2EQ with 1 ng/ml TNF-α, FIG. 9", "value": "relieves the inhibition of the differentiation induction"}, {"measurement": "tumor growth (tumor volume) compared with the control", "setting": "[4]", "value": "significantly inhibits tumor growth"}, {"measurement": "tumor growth (tumor volume) compared with the control", "setting": "[5]", "value": "significantly suppresses tumor growth"}]}, {"molecule": "O=C(NC1=CC(=O)C2OC2C1O)c1ccccc1O", "note": "(racemic) [(±)-DHM2EQ, 5,6-epoxy-4-hydroxy-3-salicyloylamino-2-cyclohexenone]", "values": [{"measurement": "growth of breast cancer on an organism level", "setting": "breast cancer", "value": "strongly suppresses the growth"}, {"measurement": "proliferation of Hodgkin's-lymphoma cells", "setting": "[6]", "value": "inhibits proliferation"}, {"measurement": "proliferation of ATL cells", "setting": "[7]", "value": "specifically capable of inhibiting proliferation"}, {"measurement": "apoptosis of normal cells", "setting": "normal cells [8]", "value": "does not induce apoptosis"}, {"measurement": "proliferation of myelocytic leukemia cells", "setting": "[9]", "value": "does not inhibit proliferation"}, {"measurement": "proliferation of normal cells", "setting": "normal cells [10]", "value": "does not inhibit proliferation"}, {"measurement": "arthritic symptoms", "setting": "[11]", "value": "efficacy of (±)-DHM2EQ in suppression of arthritic symptoms"}, {"measurement": "effect of oncotherapy that activates NF-κB (chemotherapy, radiotherapy)", "setting": "[12]", "value": "enhances the effect"}, {"measurement": "apoptosis of ATL cells", "setting": "[13]", "value": "capable of inducing apoptosis"}, {"measurement": "proliferation of human breast cancer cells", "setting": "[14]", "value": "suppresses proliferation"}, {"measurement": "toxicity", "setting": "[15]", "value": "low toxicity"}, {"measurement": "NF-κB inhibition on a cellular level", "setting": "NF-κB [16]", "value": "inhibits NF-κB strongly"}, {"measurement": "apoptosis of human normal leukocytes", "setting": "human normal leukocytes", "value": "does not in the least induce apoptosis"}, {"measurement": "NF-κB activation in ATL cells", "setting": "NF-κB [17]", "value": "inhibits NF-κB activation"}, {"measurement": "growth of prostatic cancer on an organism level", "setting": "prostatic cancer", "value": "strongly suppresses the growth"}, {"measurement": "cachexic symptoms", "setting": "[18]", "value": "efficacy of (±)-DHM2EQ in prevention/improvement of cachexic symptoms"}, {"measurement": "apoptosis of leukemia cells", "setting": "[19]", "value": "induces apoptosis"}, {"measurement": "symptoms in a model mouse of rheumatism", "setting": "[20]", "value": "suppresses symptoms"}]}]}
